# Results taken from patent US6949536B2, “Sulfonylbenzene compounds as anti-inflammatory/analgesic agents” (Pfizer, Inc., priority 1998, dated 2005).
# Structures can show the parent of a compound that is named as a salt.
row,Compound,melting point
1,"CS(=O)(=O)c1ccc(-n2nc(C(F)(F)F)cc2-c2ccc(-c3ccco3)cc2)cc1C(F)(F)F (as salt: hydrochloride) [Example 135, 5-[4-(2-Furyl)phenyl]-1-[4-(methylsulfonyl)-3-(trifluoromethyl)phenyl]-3-trifluoromethyl-1H-pyrazole]",159 to 160 °C
2,"Cc1cc(-c2cc(C(F)(F)F)nn2-c2ccc(S(N)(=O)=O)c(F)c2)ccc1-c1ccco1 [Example 139, 2-Fluoro-4-[5-[4-(2-furyl)-3-methylphenyl]-3-(trifluoromethyl)-1H-pyrazol-1-yl]benzenesulfonamide]",78 to 80 °C
3,"Cc1cc(-c2cc(C(F)(F)F)nn2-c2ccc(S(C)(=O)=O)cc2)ccc1-c1cscn1 (as salt: hydrochloride) [Example 125, 4-{2-Methyl-4-[1-[4-(methylsulfonyl)phenyl]-3-(trifluoromethyl)-1H-pyrazol-5-yl]phenyl}-1,3-thiazole]",140 to 142 °C
4,"CCOC(=O)c1cc(-c2ccc(-c3ccco3)cc2)n(-c2ccc(S(C)(=O)=O)c(F)c2)n1 [Example 126, Ethyl 1-[3-Fluoro-4-(methylsulfonyl)phenyl]-5-[4-(2-furyl)phenyl]-1H-pyrazole-3-carboxylate]",172 °C
5,"Cc1cc(-n2nc(C(F)(F)F)cc2-c2ccc(-c3cscn3)cc2)ccc1S(C)(=O)=O (as salt: hydrochloride) [Example 101, 4-{4-[1-[3-Methyl-4-(methylsulfonyl)phenyl]-3-(trifluoromethyl)-1H-pyrazol-5-yl]phenyl}-1,3-thiazole]",147 to 149 °C
6,"CC1(C)OC(=O)C(c2ccc(-c3cscn3)cc2)=C1c1ccc(S(C)(=O)=O)cc1 [Example 166, 5,5-Dimethyl-4-[4-(methylsulfonyl)phenyl]-3-[4-(1,3-thiazol-4-yl)phenyl]-2(5H)-furanone]",215.8 °C
7,"COc1cc(-c2cc(C(F)(F)F)nn2-c2ccc(S(C)(=O)=O)cc2)ccc1-c1cocn1 (as salt: hydrochloride) [Example 111, 4-{2-Methoxy-4-[1-[4-(methylsulfonyl)phenyl]-3-(trifluoromethyl)-1H-pyrazol-5-yl]phenyl}-1,3-oxazole]",171 to 173 °C
8,"CS(=O)(=O)c1ccc(-n2nc(C(N)=O)cc2-c2ccc(-c3ccco3)cc2)cc1F [Example 132, 1-[3-Fluoro-4-(methylsulfonyl)phenyl]-5-[4-(2-furyl)phenyl]-1H-pyrazole-3-carboxamide]",239 to 240 °C
9,"CS(=O)(=O)c1ccc(C2=C(c3ccc(-c4ccsc4)cc3)C(=O)OC2)cc1 [Example 32, 3-[4-(3-Thienyl)phenyl]4-[4-(methylsulfonyl)phenyl]-2-(5H)-furanone]",220 to 222 °C
10,"CS(=O)(=O)c1ccc(-n2cc(C(F)(F)F)nc2-c2ccc(-c3cccs3)cc2)cc1 [Example 52, 1-[4-(Methylsulfonyl)phenyl]-2-[4-(2-thienyl)phenyl]-4-(trifluoromethyl)-1H-imidazole]",95 to 97 °C
11,"Cc1cc(-c2cscn2)ccc1-c1cc(C(F)(F)F)nn1-c1ccc(S(C)(=O)=O)cc1 (as salt: methanesulfonate) [Example 186, 1-[4-(Methylsulfonyl)phenyl]-5-[2-methyl-4-(4-thiazolyl)phenyl]-3-trifluoromethyl-1H-pyrazole]",174.7 °C
12,"Cc1cc(-c2ccc(S(C)(=O)=O)cc2)n(-c2ccc(-c3ccco3)cc2)c1 [Example 58, 1-[4-(2-Furyl)phenyl]-4-methyl-2-[4-(methylsulfonyl)phenyl]-1H-pyrrole]",133 to 135 °C
13,"NS(=O)(=O)c1ccc(C2=C(c3ccc(-c4cscn4)cc3)C(=O)OC2)cc1F [Example 167, 2-Fluoro-4-[5-oxo-4-[4-(1,3-thiazol-4-yl)phenyl]-2,5-dihydro-3-furanyl]benzenesulfonamide]",194.2 °C
14,"Cc1cc(-c2cc(C(F)(F)F)nn2-c2ccc(S(C)(=O)=O)cc2)ccc1-c1cocn1 (as salt: hydrochloride) [Example 112, 4-{2-Methyl-4-[1-[4-(methylsulfonyl)phenyl]-3-(trifluoromethyl)-1H-pyrazol-5-yl]phenyl}-1,3-oxazole]",148 to 150 °C
15,"Cc1ccc(-c2ccc(S(C)(=O)=O)cc2)n1-c1ccc(-c2ccco2)c(Cl)c1 [Example 42, 1-[3-Chloro-4-(2-furyl)phenyl]-2-methyl-5-[4-(methylsulfonyl)phenyl]-1H-pyrrole]",127 to 131 °C
16,"Cc1cc(-c2ccco2)ccc1-c1cc(C(F)(F)F)nn1-c1ccc(S(C)(=O)=O)cc1 (as salt: hydrochloride) [Example 78, 1-[4-(Methylsulfonyl)phenyl]-5-[4-(2-furyl)-2-methylphenyl]-3-(trifluoromethyl)-1H-pyrazole]",175 to 177 °C
17,"CS(=O)(=O)c1ccc(-n2nc(C(F)(F)F)cc2-c2ccc(-c3cc4ccccc4o3)cc2)cc1 [Example 4, 1-[4-(Methylsulfonyl)phenyl]-5-[4-(benzo[b]furan-2-yl)phenyl]-3-trifluoromethyl-1H-pyrazole]",137 to 138 °C
18,"Cc1cc(-c2noc(C)c2-c2ccc(S(C)(=O)=O)c(F)c2)ccc1-c1cscn1 [Example 170, 4-[3-Fluoro-4-(methylsulfonyl)phenyl]-5-methyl-3-[3-methyl-4-(1,3-thiazol-4-yl)phenyl]isoxazole]",99.5 °C

# Next, values leading:
row,melting point,Compound
1,204 to 206 °C,"COC(=O)c1cc(-c2ccc(-c3nccs3)cc2)n(-c2ccc(S(N)(=O)=O)cc2)n1 [Example 88, Methyl 1-(4-sulfamoylphenyl)-5-[4-(2-thiazolyl)phenyl]-1H-pyrazole-3-carboxylate]"
2,187 to 188 °C,"Cc1ccc(-c2ccc(S(C)(=O)=O)cc2)n1-c1ccc(-c2ccsc2)cc1 [Example 46, 2-Methyl-5-[4-(methylsulfonyl)phenyl]-1-[4-(3-thienyl)phenyl]-1H-pyrrole]"
3,156 to 158 °C,"CS(=O)(=O)c1ccc(-n2nc(C(F)(F)F)cc2-c2ccc(-c3cscn3)c(F)c2)cc1F [Example 105, 4-{4-[1-[3-Fluoro-4-(methylsulfonyl)phenyl]-3-(trifluoromethyl)-1H-pyrazol-5-yl]-2-fluorophenyl}-1,3-thiazole]"
4,190 to 191 °C,"Cc1ccc(-c2ccc(S(C)(=O)=O)cc2)n1-c1ccc(-c2nccs2)cc1 [Example 49, 2-Methyl-5-[4-(methylsulfonyl)phenyl]-1-[4-(2-thiazolyl)phenyl]-1H-pyrrole]"
5,138 to 140 °C,"COc1cc(-c2cc(C(F)(F)F)nn2-c2ccc(S(C)(=O)=O)cc2)ccc1-c1ccco1 (as salt: hydrochloride) [Example 81, 1-[4-(Methylsulfonyl)phenyl]-5-[4-(2-furyl)-3-methoxyphenyl]-3-(trifluoromethyl)-1H-pyrazole]"
6,174.4 °C,"NS(=O)(=O)c1ccc(-n2nc(C(F)(F)F)cc2-c2ccc(-c3ccco3)cc2)c(F)c1 (as salt: hydrochloride) [Example 141, 3-Fluoro-4-[5-[4-(2-furyl)phenyl]-3-(trifluoromethyl)-1H-pyrazol-1-yl]benzenesulfonamide]"
7,72 to 74 °C,"CS(=O)(=O)c1ccc(-n2nc(C(F)(F)F)cc2-c2ccc(-c3ccsc3)cc2)cc1F [Example 87, 1-[3-Fluoro-4-(methylsulfonyl)phenyl]-5-[4-(3-thienyl)phenyl]-3-(trifluoromethyl)-1H-pyrazole]"
8,171.8 °C,"NS(=O)(=O)c1ccc(-n2nc(C(F)(F)F)cc2-c2ccc(-c3ccco3)c(Cl)c2)cc1F [Example 138, 4-[5-[3-Chloro-4-(2-furyl)phenyl]-3-(trifluoromethyl)-1H-pyrazol-1-yl]-2-fluorobenzenesulfonamide]"
9,147 to 150 °C,"Cc1ccc(-c2ccc(S(C)(=O)=O)c(F)c2)n1-c1ccc(-c2ccoc2)cc1 [Example 36, 5-[3-Fluoro-4-(methylsulfonyl)phenyl]-1-[4-(3-furyl)phenyl]-2-methyl-1H-pyrrole]"
10,185 to 186 °C,"Cc1ccc(-c2ccc(S(C)(=O)=O)cc2)n1-c1ccc(-c2cccs2)cc1 [Example 45, 2-Methyl-5-[4-(methylsulfonyl)phenyl]-1-[4-(2-thienyl]phenyl]-1H-pyrrole]"
11,160 to 162 °C,"Cc1cc(-n2c(C)ccc2-c2ccc(S(C)(=O)=O)cc2)ccc1-c1ccco1 [Example 40, 1-[4-(2-Furyl)-3-methylphenyl]-2-methyl-5-[4-(methylsulfonyl)phenyl]-1H-pyrrole]"
12,119 °C,"Cc1noc(-c2ccc(S(C)(=O)=O)cc2)c1-c1ccc(-c2cscn2)cc1 [Example 191, 3-Methyl-5-[4-(methylsulfonyl)phenyl]-4-[4-(1,3-thiazol-4-yl)phenyl]isoxazole]"
13,126 to 128 °C,"CONC(=O)c1cc(-c2ccc(-c3ccco3)cc2)n(-c2ccc(S(C)(=O)=O)c(F)c2)n1 (as salt: hydrochloride) [Example 134, N-Methoxy-1-[3-fluoro-4-(methylsulfonyl)phenyl]-5-[4-(2-furyl)phenyl]-1H-pyrazole-3-carboxamide]"
14,164 to 166 °C,"COc1cc(-c2cc(C(F)(F)F)nn2-c2ccc(S(C)(=O)=O)cc2)ccc1-c1cscn1 (as salt: hydrochloride) [Example 120, 4-{2-Methoxy-4-[1-[4-(methylsulfonyl)phenyl]-3-(trifluoromethyl)-1H-pyrazol-5-yl]phenyl}-1,3-thiazole]"
15,190.3 °C,"NS(=O)(=O)c1ccc(-n2nc(C(F)(F)F)cc2-c2ccc(-c3ccco3)cc2)c(Cl)c1 (as salt: hydrochloride) [Example 140, 3-Chloro-4-[5-[4-(2-furyl)phenyl]-3-(trifluoromethyl)-1H-pyrazol-1-yl]benzenesulfonamide]"
16,82 to 84 °C,"CS(=O)(=O)c1ccc(-n2cc(C(F)(F)F)nc2-c2ccc(-c3ccco3)cc2)cc1 [Example 53, 2-[4-(2-Furyl)phenyl]-1-[4-(methylsulfonyl)phenyl]-4-(trifluoromethyl)-1H-imidazole]"
17,225 to 227 °C,"Cc1ccc(-c2ccc(S(C)(=O)=O)cc2)n1-c1ccc(-c2ccc[nH]2)cc1 [Example 47, 2-Methyl-5-[4-(methylsulfonyl)phenyl]-1-[4-(2-pyrrolyl)phenyl]-1H-pyrrole]"
